Data as given in patent US12642771B2, “Compositions comprising PGI2-receptor agonists and processes for the preparation thereof” (Arena Pharmaceuticals, Inc., priority 2017, dated 2026).

Key:
[1] = Release (dissolution) profile of capsules, USP Apparatus 2 (paddle) at 50 rpm, 500 mL aqueous sodium phosphate 0.05 M, pH 6.8; format: physicochemical; details: for Release rate (percentage of Compound 1 released): Table 3b; for mean value (n =4) of % of Compound 1 released: Table 3g-1, Storage Time = 0; for mean value (n =4) of % of Compound 1 released / mean value (n = 41) of % of Compound 1 released: size 4 capsule 0.5 mg Compound 1, Poloxamer 188:food grade GMS 70:30; for mean value (n = 41) of % of Compound 1 released: Table 3g-2 first line (title: Storage Time = 2 weeks; values equal Table 3g-1)
Text: USP Apparatus 2 (Paddle Apparatus) is described, for example, in the United States Pharmacopeial Convention, Feb. 1, 2012, Chapter <711> (“Dissolution”), incorporated by reference herein in its entirety. See http://www.usp.org/sites/default/files/usp_pdf/EN/USPNF/revisions/m99470-gc_711.pdf. The assembly from Apparatus 1 is used, except that a paddle formed from a blade and a shaft is used as the stirring element. The shaft is positioned so that its axis is not more than 2 mm from the vertical axis of the vessel at any point and rotates smoothly without significant wobble that could affect the results. The vertical center line of the blade passes through the axis of the shaft so that the bottom of the blade is flush with the bottom of the shaft. A distance of 25±2 mm between the bottom of the blade and the inside bottom of the vessel is maintained during the test. The metallic or suitably inert, rigid blade and shaft comprise a single entity. A suitable two-part detachable design may be used provided the assembly remains firmly engaged during the test. The paddle blade and shaft may be coated with a suitable coating so as to make them inert. The dosage unit is allowed to sink to the bottom of the vessel before rotation of the blade is started. A small, loose piece of nonreactive material, such as not more than a few turns of wire helix, may be attached to dosage units that would otherwise float. Other validated sinker devices may be used.
Unless otherwise specified, the release profiles for capsules were measured using USP Apparatus 2 (paddle).
All release profiles disclosed in Tables 3c-3p were measured with USP Apparatus 2 (paddle) at 50 rpm in 500 mL of aqueous sodium phosphate at a concentration of 0.05 M (pH=6.8). The values in a given table relate to capsules obtained from the same batch. Values shown represent mean values over a number of dissolution tests (“n” in each table) in each case.

[2] = Plasma pharmacokinetics of Compound 1 stated in background and description (initial clinical studies); format: in vivo; details: immediate-release capsule formulation

SMILES: O=C(O)COC[C@H]1CC[C@H](COC(=O)N(c2ccccc2)c2ccc(Cl)cc2)CC1 [Compound 1, 2-(((1r,4r)-4-(((4-chlorophenyl)(phenyl)carbamoyloxy)methyl)cyclohexyl)methoxy)acetic acid]
- Release rate (percentage of Compound 1 released) ([1]; capsule 0.04 mg Compound 1, Poloxamer 188:food grade GMS 50:50, 4 wks storage (40° C.), 600 min): 93.2%
- Release rate (percentage of Compound 1 released) ([1]; capsule 0.04 mg Compound 1, Poloxamer 188:food grade GMS 50:50, 4 wks storage (40° C.), 720 min): 95.0%
- Release rate (percentage of Compound 1 released) ([1]; capsule 0.04 mg Compound 1, Poloxamer 188:food grade GMS 50:50, 4 wks storage (40° C.), 735 min): 94.3%
- Release rate (percentage of Compound 1 released) ([1]; capsule 0.04 mg Compound 1, Poloxamer 188:food grade GMS 50:50, 18 hrs curing (50° C.), 30 min): 14.3%
- Release rate (percentage of Compound 1 released) ([1]; capsule 0.04 mg Compound 1, Poloxamer 188:food grade GMS 50:50, 18 hrs curing (50° C.), 60 min): 21.8%
- Release rate (percentage of Compound 1 released) ([1]; capsule 0.04 mg Compound 1, Poloxamer 188:food grade GMS 50:50, 18 hrs curing (50° C.), 120 min): 39.9%
- Release rate (percentage of Compound 1 released) ([1]; capsule 0.04 mg Compound 1, Poloxamer 188:food grade GMS 50:50, 18 hrs curing (50° C.), 180 min): 56.3%
- Release rate (percentage of Compound 1 released) ([1]; capsule 0.04 mg Compound 1, Poloxamer 188:food grade GMS 50:50, 18 hrs curing (50° C.), 240 min): 72.6%
- Release rate (percentage of Compound 1 released) ([1]; capsule 0.04 mg Compound 1, Poloxamer 188:food grade GMS 50:50, 18 hrs curing (50° C.), 360 min): 89.2%
- Release rate (percentage of Compound 1 released) ([1]; capsule 0.04 mg Compound 1, Poloxamer 188:food grade GMS 50:50, 18 hrs curing (50° C.), 480 min): 93.5%
- Release rate (percentage of Compound 1 released) ([1]; capsule 0.04 mg Compound 1, Poloxamer 188:food grade GMS 50:50, 18 hrs curing (50° C.), 600 min): 95.7%
- Release rate (percentage of Compound 1 released) ([1]; capsule 0.04 mg Compound 1, Poloxamer 188:food grade GMS 50:50, 18 hrs curing (50° C.), 720 min): 96.9%
- Release rate (percentage of Compound 1 released) ([1]; capsule 0.04 mg Compound 1, Poloxamer 188:food grade GMS 50:50, 18 hrs curing (50° C.), 735 min): 95.6%
- Release rate (percentage of Compound 1 released) ([1]; capsule 0.04 mg Compound 1, Poloxamer 188:food grade GMS 50:50, T = 0 (pre-curing), 30 min): 11.0%
- Release rate (percentage of Compound 1 released) ([1]; capsule 0.04 mg Compound 1, Poloxamer 188:food grade GMS 50:50, T = 0 (pre-curing), 60 min): 18.3%
- Release rate (percentage of Compound 1 released) ([1]; capsule 0.04 mg Compound 1, Poloxamer 188:food grade GMS 50:50, T = 0 (pre-curing), 120 min): 30.1%
- Release rate (percentage of Compound 1 released) ([1]; capsule 0.04 mg Compound 1, Poloxamer 188:food grade GMS 50:50, T = 0 (pre-curing), 180 min): 39.6%
- Release rate (percentage of Compound 1 released) ([1]; capsule 0.04 mg Compound 1, Poloxamer 188:food grade GMS 50:50, T = 0 (pre-curing), 240 min): 48.8%
- Release rate (percentage of Compound 1 released) ([1]; capsule 0.04 mg Compound 1, Poloxamer 188:food grade GMS 50:50, T = 0 (pre-curing), 360 min): 64.1%
- Release rate (percentage of Compound 1 released) ([1]; capsule 0.04 mg Compound 1, Poloxamer 188:food grade GMS 50:50, T = 0 (pre-curing), 480 min): 72.7%
- Release rate (percentage of Compound 1 released) ([1]; capsule 0.04 mg Compound 1, Poloxamer 188:food grade GMS 50:50, T = 0 (pre-curing), 600 min): 79.8%
- Release rate (percentage of Compound 1 released) ([1]; capsule 0.04 mg Compound 1, Poloxamer 188:food grade GMS 50:50, T = 0 (pre-curing), 720 min): 83.1%
- Release rate (percentage of Compound 1 released) ([1]; capsule 0.04 mg Compound 1, Poloxamer 188:food grade GMS 50:50, T = 0 (pre-curing), 735 min): 84.6%
- mean value (n =4) of % of Compound 1 released ([1]; 30 min): 33.0%
- mean value (n =4) of % of Compound 1 released ([1]; 45 min): 64.2%
- mean value (n =4) of % of Compound 1 released ([1]; 60 min): 86.0%
- mean value (n = 41) of % of Compound 1 released ([1]; 30 min): 33.0%
- mean value (n = 41) of % of Compound 1 released ([1]; 45 min): 64.2%
- mean value (n = 41) of % of Compound 1 released ([1]; 60 min): 86.0%
- release profile after curing and storage ([1]; capsule 0.04 mg Compound 1, Poloxamer 188:food grade GMS 50:50, cured 18 hours, one, two and four weeks post-curing (FIG. 6)): remained substantially the same
- stabilisation of release profile by curing ([1]; capsule with research grade GMS (lower monoester content) instead of food grade GMS): curing was not as effective in stabilizing the release profile
- release rate relative to immediate-release composition ([1]; capsules 0.5 mg Compound 1, Poloxamer 188:food grade GMS 70:30, 50:50 and 30:70 (FIGS. 8-10)): slower rate than the immediate-release composition
- Cmax and peak-trough fluctuation [2]: high Cmax and peak-trough fluctuation
